Here are results for 25 molecules from patent US11530219B2, “Ligands to cereblon (CRBN)” (DANA-FARBER CANCER INSTITUTE, INC., priority 2018, dated 2022).

Read-outs that look alike come from different tables or passages of the source.

As a reminder, the IC50 is the concentration that inhibits the measured activity by half. Read a high IC50 as weaker potency in that assay. As usually defined, the Ki is a measure of affinity in units of concentration, obtained from inhibition or displacement. By EC50 is commonly meant the concentration needed to bring the measured effect to its halfway point.

The target of one assay is DDB1ΔB-CRBN (Homo sapiens (Human), UniProt Q96SW2). The experiment in a line: Atto565-Lenalidomide displacement assay (fluorescence polarization, CRBN binding). The note with it: for IC50: 10 nM Atto565-Lenalidomide, 100 nM DDB1ΔB-CRBN, n=2; for Ki: calculated from IC50 with probe Kd of 40 nM, competitive model. The protocol:
Various inventive compounds were analyzed for cereblon binding. […] Compound titrations were incubated for 60 min at room temperature. The change in fluorescence polarization was monitored using a PHERAstar® FS microplate reader (BMG Labtech) for 1 h in 120s cycles.

A further assay has as its target CRBN (Homo sapiens (Human), UniProt Q96SW2). The experiment in a line: Cellular CRBN dBET6 displacement assay (BRD4BD2-GFP/mCherry reporter cells). The settings on record: 100 nM dBET6, 5 hours. Type of assay: cell-based. The protocol:
BRD4BD2 were subcloned into mammalian pcDNA5/FRT Vector (Ampicillin and Hygromycin B resistant) modified to contain MCS-eGFP-P2A-mCherry. […] Following a 2-3 passage cycle, FACS (FACSAria™ II, BD) was used to enrich for cells expressing eGFP and mCherry.
Signal from minimal 3000 events per well was acquired and the eGFP and mCherry florescence monitored. Data was analyzed using FlowJo® (FlowJo®, LCC). […] The eGFP protein abundance relative to mCherry was then quantified as a ten-fold amplified ratio for each individual cell using the formula: 10×eGFP/mCherry. The median of the ratio was then calculated per set, normalized to the median of the DMSO ratio.
This assay provided a readout of cellular CRBN binding impacted by the permeability of the molecule tested.

Where [1] appears, read: Flip-In 293 cells stably expressing BRD4BD2-GFP, read-out: Cellular CRBN-BRD4 dBET6 displacement EC50.

Chain of DDB1ΔB-CRBN (Q96SW2 whole entry, stated change not applied): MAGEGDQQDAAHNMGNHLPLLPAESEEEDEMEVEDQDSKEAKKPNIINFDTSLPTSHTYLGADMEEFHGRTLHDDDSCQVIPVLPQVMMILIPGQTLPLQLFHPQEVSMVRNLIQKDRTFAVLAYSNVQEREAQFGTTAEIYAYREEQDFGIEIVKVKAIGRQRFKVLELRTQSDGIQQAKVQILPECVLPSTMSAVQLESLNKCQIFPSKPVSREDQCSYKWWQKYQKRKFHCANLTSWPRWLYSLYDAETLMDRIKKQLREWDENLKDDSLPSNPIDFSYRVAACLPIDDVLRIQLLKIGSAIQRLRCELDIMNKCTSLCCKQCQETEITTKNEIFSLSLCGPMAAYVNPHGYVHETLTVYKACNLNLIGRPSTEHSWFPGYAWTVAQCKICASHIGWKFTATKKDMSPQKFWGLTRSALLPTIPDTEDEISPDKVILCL
Chain of CRBN (Q96SW2 whole entry): as the sequence (Q96SW2 whole entry, stated change not applied) above

For `O=C1CCC(N2Cc3c(NC(=O)CNc4ccnc(Nc5ccccc5F)n4)cccc3C2=O)C(=O)N1` (stereo not drawn) [Compound 1, N-(2-(2,6-dioxopiperidin-3-yl)-1-oxoisoindolin-4-yl)-2-((2-((2-fluorophenyl)amino)pyrimidin-4-yl)amino)acetamide], at DDB1ΔB-CRBN, the IC50 worked out at 29.7 µM and the Ki is 8.5 µM.
As to `O=C1CCC(N2Cc3c(NC(=O)CNc4ccnc(Nc5ccc6c(c5)CCC6)n4)cccc3C2=O)C(=O)N1` (stereo not drawn) [Compound 2, 2-((2-((2,3-dihydro-1H-inden-5-yl)amino)pyrimidin-4-yl)amino)-N-(2-(2,6-dioxopiperidin-3-yl)-1-oxoisoindolin-4-yl)acetamide], on CRBN (setting [1]), the EC50 was 47.9 µM. For the same molecule, on DDB1ΔB-CRBN, the IC50 is 47.5 µM and the Ki is 13.6 µM.
As for `O=C1CCC(N2Cc3c(NC(=O)CNc4ccnc(NCc5ccc6c(c5)OCO6)n4)cccc3C2=O)C(=O)N1` (stereo not drawn) [Compound 3, 2-((2-((benzo[d][1,3]dioxol-5-ylmethyl)amino)pyrimidin-4-yl)amino)-N-(2-(2,6-dioxopiperidin-3-yl)-1-oxoisoindolin-4-yl)acetamide], on DDB1ΔB-CRBN, the IC50 was 12.5 µM and the Ki was 13.6 µM.
Take `O=C1CCC(N2Cc3c(NC(=O)CNc4ccnc(N5CCC[C@H]5CO)n4)cccc3C2=O)C(=O)N1` (stereo partly drawn) [Compound 4, N-(2-(2,6-dioxopiperidin-3-yl)-1-oxoisoindolin-4-yl)-2-((2-((S)-2-(hydroxymethyl)pyrrolidin-1-yl)pyrimidin-4-yl)amino)acetamide]: at DDB1ΔB-CRBN, the IC50 was 8.5 µM and the Ki is 2.4 µM.
With `O=C1CCC(N2Cc3c(NC(=O)CNc4ccnc(Nc5ccc6c(c5)OCO6)n4)cccc3C2=O)C(=O)N1` (stereo not drawn) [Compound 5, 2-((2-(benzo[d][1,3]dioxol-5-ylamino)pyrimidin-4-yl)amino)-N-(2-(2,6-dioxopiperidin-3-yl)-1-oxoisoindolin-4-yl)acetamide], on DDB1ΔB-CRBN, the IC50 came to 42.5 µM and the Ki was 12.2 µM.
For the molecule `O=C1CCC(N2Cc3c(NC(=O)CNc4ccnc(NCCCN5CCCC5=O)n4)cccc3C2=O)C(=O)N1` (stereo not drawn) [Compound 6, N-(2-(2,6-dioxopiperidin-3-yl)-1-oxoisoindolin-4-yl)-2-((2-((3-(2-oxopyrrolidin-1-yl)propyl)amino)pyrimidin-4-yl)amino)acetamide], on DDB1ΔB-CRBN, the concentration for half-maximal inhibition (IC50) came out at 22.9 µM and the Ki was 6.5 µM.
For `COc1ccc(Nc2nccc(NCC(=O)Nc3cccc4c3CN(C3CCC(=O)NC3=O)C4=O)n2)cc1` (stereo not drawn) [Compound 7, N-(2-(2,6-dioxopiperidin-3-yl)-1-oxoisoindolin-4-yl)-2-((2-((4-methoxyphenyl)amino)pyrimidin-4-yl)amino)acetamide], on DDB1ΔB-CRBN, the IC50 stood at 38.9 µM and the Ki is 11.1 µM.
Turning to `COc1cccc(-c2nccc(NCC(=O)Nc3cccc4c3CN(C3CCC(=O)NC3=O)C4=O)n2)c1` (stereo not drawn) [Compound 9, N-(2-(2,6-dioxopiperidin-3-yl)-1-oxoisoindolin-4-yl)-2-((2-(3-methoxyphenyl)pyrimidin-4-yl)amino)acetamide], on DDB1ΔB-CRBN, the IC50 stood at 22.1 µM and the Ki is 6.3 µM.
On to `COc1ccc(OC)c(-c2nccc(NCC(=O)Nc3cccc4c3CN(C3CCC(=O)NC3=O)C4=O)n2)c1` (stereo not drawn) [Compound 10, 2-((2-(2,5-dimethoxyphenyl)pyrimidin-4-yl)amino)-N-(2-(2,6-dioxopiperidin-3-yl)-1-oxoisoindolin-4-yl)acetamide], for which, on DDB1ΔB-CRBN, the IC50 is 18.9 µM and the Ki is 5.4 µM.
Regarding `O=C1CCC(N2Cc3c(NC(=O)CNc4ccnc(-c5ccc(F)cc5)n4)cccc3C2=O)C(=O)N1` (stereo not drawn) [Compound 11, N-(2-(2,6-dioxopiperidin-3-yl)-1-oxoisoindolin-4-yl)-2-((2-(4-fluorophenyl)pyrimidin-4-yl)amino)acetamide], at DDB1ΔB-CRBN, the IC50 came to 14.7 µM and the Ki is 4.2 µM.
As to `CC(=O)c1ccc(-c2nccc(NCC(=O)Nc3cccc4c3CN(C3CCC(=O)NC3=O)C4=O)n2)cc1` (stereo not drawn) [Compound 12, 2-((2-(4-acetylphenyl)pyrimidin-4-yl)amino)-N-(2-(2,6-dioxopiperidin-3-yl)-1-oxoisoindolin-4-yl)acetamide], at DDB1ΔB-CRBN, the half-inhibitory concentration (IC50) was 13.8 µM and the Ki was 3.9 µM.
In the case of `O=C1CCC(N2Cc3c(NC(=O)CNc4ccnc(-c5cc6ccccc6o5)n4)cccc3C2=O)C(=O)N1` (stereo not drawn) [Compound 13, 2-((2-(benzofuran-2-yl)pyrimidin-4-yl)amino)-N-(2-(2,6-dioxopiperidin-3-yl)-1-oxoisoindolin-4-yl)acetamide], at DDB1ΔB-CRBN, the half-inhibitory concentration (IC50) is 28.9 µM and the Ki is 8.3 µM.
For the molecule `O=C1CCC(N2Cc3c(NC(=O)CNc4ccnc(N5CCC[C@@H]5CO)n4)cccc3C2=O)C(=O)N1` (stereo partly drawn) [Compound 14, N-(2-(2,6-dioxopiperidin-3-yl)-1-oxoisoindolin-4-yl)-2-((2-((R)-2-(hydroxymethyl)pyrrolidin-1-yl)pyrimidin-4-yl)amino)acetamide], on DDB1ΔB-CRBN, the 50% inhibitory concentration (IC50) is 1.6 µM and the Ki was 0.44 µM.
For `COc1ccccc1Nc1nccc(NCC(=O)Nc2cccc3c2CN(C2CCC(=O)NC2=O)C3=O)n1` (stereo not drawn) [Compound 15, N-(2-(2,6-dioxopiperidin-3-yl)-1-oxoisoindolin-4-yl)-2-((2-((2-methoxyphenyl)amino)pyrimidin-4-yl)amino)acetamide], in that order: 15.2 µM and 4.3 µM.
Take `O=C1CCC(N2Cc3c(NC(=O)CNc4ccnc(N5CCN(c6cccc(C(F)(F)F)c6)CC5)n4)cccc3C2=O)C(=O)N1` (stereo not drawn) [Compound 16, N-(2-(2,6-dioxopiperidin-3-yl)-1-oxoisoindolin-4-yl)-2-((2-(4-(3-(trifluoromethyl)phenyl)piperazin-1-yl)pyrimidin-4-yl)amino)acetamide]: at DDB1ΔB-CRBN, the IC50 stood at 0.517 µM and the Ki is 0.13 µM.
Take `CN(c1ccccc1)c1nccc(NCC(=O)Nc2cccc3c2CN(C2CCC(=O)NC2=O)C3=O)n1` (stereo not drawn) [Compound 17, N-(2-(2,6-dioxopiperidin-3-yl)-1-oxoisoindolin-4-yl)-2-((2-(methyl(phenyl)amino)pyrimidin-4-yl)amino)acetamide]: on DDB1ΔB-CRBN, the IC50 was 3.44 µM and the Ki is 0.97 µM.
In the case of `O=C1CCC(N2Cc3c(Nc4ccnc(Nc5ccc6ccccc6c5)n4)cccc3C2=O)C(=O)N1` (stereo not drawn) [Compound 45, 3-(4-((2-(naphthalen-2-ylamino)pyrimidin-4-yl)amino)-1-oxoisoindolin-2-yl)piperidine-2,6-dione], the concentration for a half-maximal effect (EC50) on CRBN (setting [1]) is 2.06 µM.
For `O=C1CCC(N2Cc3c(Nc4ccnc(Nc5ccc6c(c5)-c5ccccc5C6)n4)cccc3C2=O)C(=O)N1` (stereo not drawn) [Compound 46, 3-(4-((2-((9H-fluoren-3-yl)amino)pyrimidin-4-yl)amino)-1-oxoisoindolin-2-yl)piperidine-2,6-dione], the EC50 at CRBN (setting [1]) amounted to 1.13 µM.
`COc1ccccc1-c1nc(Nc2cccc3c2CN(C2CCC(=O)NC2=O)C3=O)c2nc[nH]c2n1` (stereo not drawn) [Compound 47, 3-(4-((2-(2-methoxyphenyl)-9H-purin-6-yl)amino)-1-oxoisoindolin-2-yl)piperidine-2,6-dione]: the EC50 on CRBN (setting [1]) is 27.1 µM.
With `O=C1CCC(N2Cc3c(Nc4nc(-c5ccc(-c6ccccc6)cc5)nc5[nH]cnc45)cccc3C2=O)C(=O)N1` (stereo not drawn) [Compound 48, 3-(4-((2-([1,1′-biphenyl]-4-yl)-9H-purin-6-yl)amino)-1-oxoisoindolin-2-yl)piperidine-2,6-dione], the EC50 on CRBN (setting [1]) came out at 12.4 µM.
As for `COc1cc(F)ccc1-c1nc(Nc2cccc3c2CN(C2CCC(=O)NC2=O)C3=O)c2nc[nH]c2n1` (stereo not drawn) [Compound 49, 3-(4-((2-(4-fluoro-2-methoxyphenyl)-9H-purin-6-yl)amino)-1-oxoisoindolin-2-yl)piperidine-2,6-dione], the EC50 at CRBN (setting [1]) worked out at 12.4 µM.
For `O=C1CCC(N2Cc3c(Nc4nc(-c5ccc(F)cc5)nc5[nH]cnc45)cccc3C2=O)C(=O)N1` (stereo not drawn) [Compound 50, 3-(4-((2-(4-fluorophenyl)-9H-purin-6-yl)amino)-1-oxoisoindolin-2-yl)piperidine-2,6-dione], on CRBN (setting [1]), the concentration for a half-maximal effect (EC50) turned out to be 8.29 µM.
In the case of `COc1cc(OC)cc(-c2nc(Nc3cccc4c3CN(C3CCC(=O)NC3=O)C4=O)c3nc[nH]c3n2)c1` (stereo not drawn) [Compound 51, 3-(4-((2-(3,5-dimethoxyphenyl)-9H-purin-6-yl)amino)-1-oxoisoindolin-2-yl)piperidine-2,6-dione], the concentration giving a half-maximal response (EC50) on CRBN (setting [1]) is 6.83 µM.
On to `O=C1CCC(N2Cc3c(Nc4ccnc(Nc5ccc6c(c5)CCCC6)n4)cccc3C2=O)C(=O)N1` (stereo not drawn) [Compound 52, 3-(1-oxo-4-((2-((5,6,7,8-tetrahydronaphthalen-2-yl)amino)pyrimidin-4-yl)amino)isoindolin-2-yl)piperidine-2,6-dione], for which the EC50 at CRBN (unit printed as 'M' in the text (Table 1 gives μM), read-out: Cellular CRBN engagement EC50) is 0.46 µM.
Turning to `CC(C)n1cnc2c(Nc3cccc4c3CN(C3CCC(=O)NC3=O)C4=O)nc(Nc3ccc4c(c3)CCC4)nc21` (stereo not drawn) [Compound 53, 3-(4-((2-((2,3-dihydro-1H-inden-5-yl)amino)-9-isopropyl-9H-purin-6-yl)amino)-1-oxoisoindolin-2-yl)piperidine-2,6-dione], the EC50 at CRBN (setting [1]) amounted to 0.665 µM.
